Results from US20250025568A1, “COMBINATION OF ANTIBODY-DRUG CONJUGATE AND PARP1 SELECTIVE INHIBITOR” (AstraZeneca UK Limited, priority 2021, published 2025).

Tests used:
[1] = tested on: BRCA2 −/− DLD-1; conditions: 4 day compound dosing; read-out: BRCA2 −/− DLD-1 prolif 4 d IC50; cited from earlier work
[2] = tested on: NCI-N87 xenograft (gastric cancer cell line); test: Antitumor test in vivo, NCI-N87 xenograft model (Example 4); design: species or system Female Nude mice
Experimental: (§1) Female Nude mice (Charles River) aged 5-8 weeks were used, following 7 days acclimatisation before entry into the study. 5×10^6 NCI-N87 tumor cells (gastric cancer cell line) (1:1 in Matrigel) were implanted subcutaneously onto the flank of the female Nude mice. When tumors reached approximately 250 mm^3, similar-sized tumors were randomly assigned to treatment groups as shown in Table 6:
(§2) The dose of compound for each animal was calculated based on the individual body weight on the day of dosing. DS-1062 and AZD5305 were dosed on the same day, with DS-1062 being administered approximately 5 hour post the PO dose of AZD5305. DS-1062 was administered as a single dose at 10 mg/kg on day 1, and AZD5305 was administered at 1 mg/kg QD for 21 days. Duration of dosing was for 21 days.
(§3) Tumor growth inhibition (TGI) was calculated as follows:
(§4) where MTV=mean tumor volume.
(§5) Statistical significance was evaluated using one-tailed t-test of (log (relative tumor volume)=log (final vol/start vol)) at the day of final measure, comparing to vehicle control.

[3] = tested on: NCI-N87 xenograft (gastric cancer cell line); test: Antitumor test (dose regimen optimization) in vivo, NCI-N87 xenograft model (Example 7); design: species or system Female Nude mice
Experimental: as §1, with “12:” for “6:”
The dose of compound for each animal was calculated based on the individual body weight on the day of dosing. […]

[4] = tested on: NCI-N87 xenograft (gastric cancer cell line); test: Antitumor test (dose titration) in vivo, NCI-N87 xenograft model (Example 6); design: species or system Female Nude mice
Experimental: as §1, with “10:” for “6:”
as §2, with “administered at 1, 0.1 or 0.01 mg/kg QD” for “administered at 1 mg/kg QD”

[5] = tested on: WT DLD-1; conditions: 4 day compound dosing; read-out: WT DLD-1 prolif 4 d IC50; cited from earlier work
[6] = tested on: CTG-3718 ovarian PDX; test: Antitumor test in vivo, CTG-3718 xenograft model (Example 8); design: species or system nude mice
Description: The human patient-derived xenograft (PDX) model, CTG-3718, was established from fragments of freshly resected tumor of an ovarian cancer patient who relapsed on treatment with PARP inhibitor talazoparib. This PDX was obtained in accordance with appropriate consent procedures. This ovarian PDX model was subcutaneously passaged in vivo as fragments from animal to animal in nude mice. When tumors reached approximately 250 mm^3, similar-sized tumors were randomly assigned to treatment groups as shown in Table 14: […]

[7] = tested on: CTG-3303 TNBC PDX; test: Antitumor test in vivo, TNBC patient derived xenograft model (Example 5); design: species or system Female Nude mice; conditions: for TGI % day 46: CTG-3303 TNBC PDX; for percentage of mice achieving a complete response (tumor volume <20 mm^3): day 46 post treatment
Description: Female Nude mice (Charles River) aged 5-8 weeks were used, following 7 days acclimatisation before entry into the study. The human patient-derived xenograft (PDX) model, CTG-3303, was established from fragments of freshly resected tumor of a triple negative breast cancer (TNBC) patient whom relapsed on treatment with PARP inhibitor talazoparib. This PDX was obtained in accordance with appropriate consent procedures. This TNBC PDX model was subcutaneously passaged in vivo as fragments from animal to animal in nude mice. When tumors reached approximately 250 mm^3, similar-sized tumors were randomly assigned to treatment groups as shown in Table 8:
as §2, §3, §4, §5
In addition, the percentage of mice in each treatment group achieving a complete response (defined as tumor volume <20 mm^3) at day 46 post treatment were calculated and shown in FIG. 19B. Monotherapy with DS-1062 at 10 mg/kg led to 1 out 8 mice (12.5%) achieving a complete response at day 46 post treatment. AZD5305 monotherapy led to 0 out 8 mice (0%) achieving a complete response at day 46 post treatment. Combination treatment of AZD5305 with DS-1062 at 10 mg/kg led to 2 out 8 mice (25%) achieving a complete response at day 46 post treatment and led to higher complete response rates than either respective monotherapy.

[8] = target: hERG (Homo sapiens, UniProt Q12809); conditions: cited from earlier work
[9] = AZD5305 1 mg/kg PO QD for 21 days, 1 mg/kg
[10] = DS-1062 10 mg/kg IV single dose, 10 mg/kg

Sequence of hERG (Q12809 whole entry): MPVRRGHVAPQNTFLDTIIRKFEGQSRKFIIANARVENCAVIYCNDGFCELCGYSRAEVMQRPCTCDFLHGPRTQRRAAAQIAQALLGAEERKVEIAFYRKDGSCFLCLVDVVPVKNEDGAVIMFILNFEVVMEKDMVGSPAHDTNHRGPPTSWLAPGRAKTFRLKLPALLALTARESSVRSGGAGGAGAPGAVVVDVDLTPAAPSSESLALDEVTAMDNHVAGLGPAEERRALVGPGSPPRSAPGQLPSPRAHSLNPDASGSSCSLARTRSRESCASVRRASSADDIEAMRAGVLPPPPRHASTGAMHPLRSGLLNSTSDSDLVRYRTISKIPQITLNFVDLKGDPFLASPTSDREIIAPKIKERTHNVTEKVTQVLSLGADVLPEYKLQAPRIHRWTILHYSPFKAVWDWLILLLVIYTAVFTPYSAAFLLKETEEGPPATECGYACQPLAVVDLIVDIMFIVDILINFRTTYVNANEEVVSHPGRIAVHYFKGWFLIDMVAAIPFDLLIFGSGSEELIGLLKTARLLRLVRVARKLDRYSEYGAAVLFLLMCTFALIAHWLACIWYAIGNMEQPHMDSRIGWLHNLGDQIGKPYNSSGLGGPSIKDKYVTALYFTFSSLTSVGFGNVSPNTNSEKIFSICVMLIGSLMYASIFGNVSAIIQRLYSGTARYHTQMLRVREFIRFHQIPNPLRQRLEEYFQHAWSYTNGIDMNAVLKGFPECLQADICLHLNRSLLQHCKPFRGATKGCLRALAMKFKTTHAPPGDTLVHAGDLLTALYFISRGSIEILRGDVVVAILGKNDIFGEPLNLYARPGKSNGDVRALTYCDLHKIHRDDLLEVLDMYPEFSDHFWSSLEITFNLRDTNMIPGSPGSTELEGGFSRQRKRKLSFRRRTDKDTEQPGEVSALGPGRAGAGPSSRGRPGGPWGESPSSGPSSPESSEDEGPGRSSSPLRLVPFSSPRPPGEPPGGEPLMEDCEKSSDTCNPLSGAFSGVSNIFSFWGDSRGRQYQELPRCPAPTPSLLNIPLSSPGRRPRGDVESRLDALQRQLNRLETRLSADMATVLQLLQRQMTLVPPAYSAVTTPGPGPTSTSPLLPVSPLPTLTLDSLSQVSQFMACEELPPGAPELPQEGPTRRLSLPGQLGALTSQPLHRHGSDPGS

Molecule: CCc1cc2ncc(CN3CCN(c4ccc(C(=O)NC)nc4)CC3)cc2[nH]c1=O [Example 4, 5-[4-[(7-ethyl-6-oxo-5H-1,5-naphthyridin-3-yl)methyl]piperazin-1-yl]-N-methyl-pyridine-2-carboxamide]
- IC50 [1]: > 0.017 µM
- TGI % day 19 [2, 9]: 22%
- TGI % day 52 ([3]; AZD5305 1 mg/kg PO QD (21 days), 1 mg/kg): 26%
- TGI % day 49 [4, 9]: 18%
- IC50 [5]: > 30 µM
- TGI % day 28 ([6]; AZD5305 0.1 mg/kg PO QD (21 days), 0.1 mg/kg): −16%
- TGI % day 46 [7, 9]: 28%
- percentage of mice achieving a complete response (tumor volume <20 mm^3) ([7]; AZD5305 1 mg/kg QD): 0%

Molecule: CCc1cc2ncc(CN3CCN(c4ccc(C(=O)NC)nc4C(F)(F)F)CC3)cc2[nH]c1=O [Example 30, 5-[4-[(7-ethyl-6-oxo-5H-1,5-naphthyridin-3-yl)methyl]piperazin-1-yl]-N-methyl-6 (trifluoromethyl)pyridine-2-carboxamide]
- IC50 [1]: 0.004 µM
- IC50 [5]: > 30 µM
- IC50 [8]: > 40 µM

B1: DS-1062: anti-TROP2 antibody-drug conjugate; exatecan-derivative drug-linker conjugated to the anti-TROP2 antibody via a thioether bond; DAR ~4 (conjugate, chains of the INN, looked up)
VH: QVQLVQSGAEVKKPGASVKVSCKASGYTFTTAGMQWVRQAPGQGLEWMGWINTHSGVPKYAEDFKGRVTISADTSTSTAYLQLSSLKSEDTAVYYCARSGFGSSYWYFDVWGQGTLVTVSS
VL: DIQMTQSPSSLSASVGDRVTITCKASQDVSTAVAWYQQKPGKAPKLLIYSASYRYTGVPSRFSGSGSGTDFTLTISSLQPEDFAVYYCQQHYITPLTFGQGTKLEIK
modifications: exatecan-derivative drug-linker, DAR ~4
- TGI % day 19 [2, 10]: 82%
- TGI % day 52 [3, 10]: 84%
- TGI % day 49 [4, 10]: 75%
- TGI % day 28 [6, 10]: 72%
- TGI % day 46 [7, 10]: 88%
- percentage of mice achieving a complete response (tumor volume <20 mm^3) ([7]; DS-1062 10 mg/kg): 12.5%
